From ChEMBL document CHEMBL1201862, “PubChem BioAssay data set” (2004)
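Cells were grown in 96-well plates and exposed to each compound for 48 hours at five concentrations; endpoints were interpolated linearly between bracketing concentrations, or set to the highest concentration if not reached. Abbreviation: GI50, concentration required for 50% inhibition of growth.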 Calls of active or inactive are those of the source. Rule as the data show it: active = GI50 up to about 1.1 µM and inactive = higher.

Tests used:
Experiment in all cases: DTP human tumour cell line panel, 48 h
[1] = system: A498
[2] = system: ACHN
[3] = system: CAKI-1
[4] = system: CCRF-CEM
[5] = system: HCT-116
[6] = system: HOP-92
[7] = system: HT-29
[8] = system: KM12
[9] = system: MCF7
[10] = system: MOLT-4
[11] = system: NCI-H226
[12] = system: OVCAR-8
[13] = system: RXF 393
[14] = system: SK-MEL-28
[15] = system: SNB-19
[16] = system: SNB-75
[17] = system: U-251
[18] = system: UACC-257
[19] = system: K562
[20] = system: SF-268

Measured: GI50

N#C[C@H](c1ccccn1)c1nc2ccccc2nc1Cl
inactive: [1] > 100 µM | [2] > 100 µM | [3] > 100 µM | [4] > 100 µM | [5] > 100 µM | [6] > 100 µM | [7] > 100 µM | [8] 36.5 µM | [9] > 100 µM | [10] > 100 µM | [11] > 100 µM | [12] > 100 µM | [13] > 100 µM | [14] > 100 µM | [15] > 100 µM | [16] > 100 µM | [17] > 100 µM | [18] > 100 µM

CCOC(=O)c1csc(NC(=O)CCN2CCN(C)CC2)n1
inactive: [1] > 100 µM | [2] > 100 µM | [3] 64.1 µM | [4] 54.8 µM | [6] > 100 µM | [7] 62.1 µM | [19] 69.8 µM | [8] > 100 µM | [9] 89.3 µM | [10] 65.5 µM | [11] > 100 µM | [12] > 100 µM | [13] > 100 µM | [14] > 100 µM | [15] > 100 µM | [16] > 100 µM | [17] > 100 µM | [18] > 100 µM

C=C1CC(OC)(C(OC)C(=O)N[C@H]2OCO[C@H]3C2O[C@H](C[C@@H](COC)OC)C(C)(C)C3OC)O[C@H](C)[C@@H]1C (some centres undefined)
inactive: [9] 1.4 µM | [11] 1.16 µM | [16] 1.21 µM
active: [1] 1.03 µM | [3] 0.916 µM | [4] 0.21 µM | [5] 0.624 µM | [6] 0.521 µM | [7] 0.491 µM | [19] 0.815 µM | [8] 0.603 µM | [10] 0.522 µM | [12] 0.861 µM | [13] 0.995 µM | [14] 0.764 µM | [15] 0.611 µM | [17] 0.918 µM | [18] 1.1 µM

O=C1CC2(CCC(O)(c3ccc4ccccc4c3)C(C(=O)c3ccc4ccccc4c3)C2)C(=O)c2ccccc2N1 (centres undefined)
inactive: [1] > 100 µM | [3] > 100 µM | [4] > 100 µM | [5] > 100 µM | [6] 5.69 µM | [7] > 100 µM | [19] > 100 µM | [9] 7.59 µM | [10] 8.93 µM | [11] > 100 µM | [12] > 100 µM | [13] > 100 µM | [20] > 100 µM | [14] > 100 µM | [15] > 100 µM | [16] > 100 µM | [17] > 100 µM | [18] > 100 µM

C[N+](C)(C)/C=N\c1cccc2c1CCCC2
inactive: [1] > 100 µM | [2] > 100 µM | [3] > 100 µM | [4] 50.7 µM | [5] > 100 µM | [6] 17.7 µM | [7] 58.1 µM | [19] 18 µM | [9] > 100 µM | [10] > 100 µM | [11] 58.2 µM | [12] > 100 µM | [13] > 100 µM | [20] > 100 µM | [14] > 100 µM | [15] > 100 µM | [16] 56.5 µM | [17] 88.3 µM | [18] 45.1 µM

c1ccc2c(c1)c1c(n2CCOCCCN2CCCCC2)CCCC1
inactive: [1] 25.8 µM | [2] 15.1 µM | [3] 18 µM | [6] 22.7 µM | [7] 12 µM | [19] 14 µM | [8] 15 µM | [9] 16.1 µM | [10] 4.36 µM | [11] 16.3 µM | [12] 17.6 µM | [13] 11.4 µM | [20] 28.2 µM | [14] 20.1 µM | [15] 27.5 µM | [16] 16 µM | [17] 16 µM | [18] 16.8 µM
